# Target: 20S proteasome
# Assay: Tested in vitro for inhibition of chymotrypsin like activity of purified human 20S proteasome
# Assay type: subcellular
row,Structure (SMILES),IC50 [nM]
1,COc1ccc(CN[C@@H](C(=O)N[C@H](C(=O)NCc2ccc(OC)cc2O)C(C)C)[C@H](O)[C@H](Cc2ccccc2)NC(=O)[C@@H](NC(=O)OCc2ccccc2)C(C)(C)C)cc1,900
2,COc1ccc(CNC(=O)[C@@H](NC(=O)[C@H](NCc2ccc(Oc3ccccc3)cc2)[C@H](O)[C@H](Cc2ccccc2)NC(=O)[C@@H](NC(=O)OCc2ccccc2)C(C)(C)C)C(C)C)c(O)c1,> 20000
3,COc1cccc(CN[C@@H](C(=O)N[C@H](C(=O)NCc2ccc(OC)cc2O)C(C)C)[C@H](O)[C@H](Cc2ccccc2)NC(=O)[C@@H](NC(=O)OCc2ccccc2)C(C)(C)C)c1,1500
4,COc1ccc(CNC(=O)[C@@H](NC(=O)[C@H](NCc2ccc(OC)c(OC)c2)[C@H](O)[C@H](Cc2ccccc2)NC(=O)[C@@H](NC(=O)OCc2ccccc2)C(C)(C)C)C(C)C)c(O)c1,150
5,COc1ccc(CNC(=O)[C@@H](NC(=O)[C@H](NCc2ccc(N(C)C)cc2)[C@H](O)[C@H](Cc2ccccc2)NC(=O)[C@@H](NC(=O)Cc2cccc3ccccc23)C(C)(C)C)C(C)C)c(O)c1,160
6,COc1ccc(CNC(=O)[C@@H](NC(=O)[C@H](NCc2ccc(C(C)C)cc2)[C@H](O)[C@H](Cc2ccccc2)NC(=O)[C@@H](NC(=O)OCc2ccccc2)C(C)(C)C)C(C)C)c(O)c1,1600
7,COc1ccc(CNC(=O)[C@@H](NC(=O)[C@H](NCc2ccc(-c3ccccc3)cc2)[C@H](O)[C@H](Cc2ccccc2)NC(=O)[C@@H](NC(=O)OCc2ccccc2)C(C)(C)C)C(C)C)c(O)c1,> 20000
8,COc1ccc(CNC(=O)[C@@H](NC(=O)[C@H](NCc2cc(OC)c(OC)cc2OC)[C@H](O)[C@H](Cc2ccccc2)NC(=O)[C@@H](NC(=O)OCc2ccccc2)C(C)(C)C)C(C)C)c(O)c1,200
9,COc1ccc(CNC(=O)[C@@H](NC(=O)[C@H](NCc2cc(OC)c(OC)c(OC)c2)[C@H](O)[C@H](Cc2ccccc2)NC(=O)[C@@H](NC(=O)OCc2ccccc2)C(C)(C)C)C(C)C)c(O)c1,50
10,COc1ccc(CNC(=O)[C@@H](NC(=O)[C@H](NCc2ccc(OC)c(OC)c2OC)[C@H](O)[C@H](Cc2ccccc2)NC(=O)[C@@H](NC(=O)Cc2cccc3ccccc23)C(C)(C)C)C(C)C)c(O)c1,18
11,COc1ccc(CN[C@@H](C(=O)N[C@H](C(=O)NCc2ccc(OC)cc2O)C(C)C)[C@H](O)[C@H](Cc2ccccc2)NC(=O)[C@@H](NC(=O)Cc2cccc3ccccc23)C(C)(C)C)cc1,100
12,COc1cc(CN[C@@H](C(=O)N[C@H](C(=O)NCc2ccc(OC)cc2O)C(C)C)[C@H](O)[C@H](Cc2ccccc2)NC(=O)[C@@H](NC(=O)OCc2ccccc2)C(C)(C)C)cc(OC)c1,190
13,COc1ccc(CNC(=O)[C@@H](NC(=O)[C@H](NCc2ccccc2)[C@H](O)[C@H](Cc2ccccc2)NC(=O)[C@@H](NC(=O)OCc2ccccc2)C(C)(C)C)C(C)C)c(O)c1,> 20000
14,COc1ccc(CNC(=O)[C@@H](NC(=O)[C@H](NCc2ccccc2OC)[C@H](O)[C@H](Cc2ccccc2)NC(=O)[C@@H](NC(=O)OCc2ccccc2)C(C)(C)C)C(C)C)c(O)c1,> 20000
15,COc1ccc(CNC(=O)[C@@H](NC(=O)[C@H](NCc2ccc(OC)cc2OC)[C@H](O)[C@H](Cc2ccccc2)NC(=O)[C@@H](NC(=O)OCc2ccccc2)C(C)(C)C)C(C)C)c(O)c1,1600
16,COc1ccc(CNC(=O)[C@@H](NC(=O)[C@H](NCc2cc(OC)c(OC)cc2OC)[C@H](O)[C@H](Cc2ccccc2)NC(=O)[C@@H](NC(=O)Cc2cccc3ccccc23)C(C)(C)C)C(C)C)c(O)c1,29
17,COc1ccc(CNC(=O)[C@@H](NC(=O)[C@H](NCc2ccc(OC)c(OC)c2OC)[C@H](O)[C@H](Cc2ccccc2)NC(=O)[C@@H](NC(=O)OCc2ccccc2)C(C)(C)C)C(C)C)c(O)c1,100
18,COc1ccc(CNC(=O)[C@@H](NC(=O)[C@H](NCc2ccc(N(C)C)cc2)[C@H](O)[C@H](Cc2ccccc2)NC(=O)[C@@H](NC(=O)OCc2ccccc2)C(C)(C)C)C(C)C)c(O)c1,600
19,COc1ccc(CNC(=O)[C@@H](NC(=O)[C@H](NCc2cc(OC)c(OC)c(OC)c2)[C@H](O)[C@H](Cc2ccccc2)NC(=O)[C@@H](NC(=O)Cc2cccc3ccccc23)C(C)(C)C)C(C)C)c(O)c1,7

# Reference: ChEMBL document CHEMBL1136019, “Structure-based optimisation of 2-aminobenzylstatine derivatives: potent and selective inhibitors of the chymotrypsin-like activity of the human 20S proteasome” (Bioorg Med Chem Lett, 2002)
